# Assay results published in patent publication US20240342138A1, “MICROTUBULE TARGETING AGENTS” (BPGbio, Inc., priority 2023, published 2024).
# Like-named read-outs stand apart in the source and are kept apart here.
# Key:
# HCT116 cells = assay: Kinetochore assembly, immunocytochemistry / confocal microscopy; assay type: cell-based; conditions: 300 nM, 24h
# Method: The HCT116 cells were cultured using DMEM media supplemented with 10% FBS and 1% Pen/Strep. Cells were maintained to a maximum of 80% confluency before being split and plated into coverslips in 12-well plates.
# 1. HCT116 cells were plated on Poly-D-Lysine German Glass Coverslips (#1.5, 18 mm)
# 2. After 24h cells were treated with 300 nM of Compound 1 and Nocodozole.
# 3. After 24h cells were washed briefly with PBS and fixed with warm 4% paraformaldehyde at room temperature for 10 min.
# 4. Cells were permeabilized and blocked in 10% goat serum, 0.5% Triton-X in PBS for 1 hr.
# 5. Cells were incubated with Primary antibodies overnight.
# 6. Washed 3× with PBS for 10 min
# 7. Incubated with secondary antibodies at room temperature for 1 hr.
# 8. Washed 3× with PBS for 10 min
# 9. Coverslips were mounted with ProLong Gold Anti-Fade Mount with DAPI and imaged with Olympus FV1200 MPE Microscope.
# 10. Images were collected with identical confocal settings for all of the samples and Z-stacked images were projected with maximal projection mode using Fluor View Software.
# 1. Selected cells of interest using the drawing/selection tools (i.e. rectangle, circle, polygon or freeform).
# 2. From the Analyze menu selected “Measure.”
# 3. Selected region with no fluorescence to be my background.
# 4. Repeated these steps for other cells in the field of view
# 5. Used the CTCF formula to calculate Mad1 expression:
# CTCF=Integrated Density−(Area of selected cell×Mean fluorescence of background readings)
# Micrographs were imaged using Olympus FV1200 MPE confocal microscope at 63× oil. White arrows indicate dividing cells. Representative images of N=3 biological replicates. Significance in difference of treated HCT116 cells to untreated cells was tested by Student t test (** p<0.01).
# [1] = Biodistribution after oral administration; assay type: in vivo, Sprague-Dawley Rats; conditions: 75 mg/kg oral; for concentration at 8 h / Kp at 8 h / concentration at 0.25 h / Kp at 0.25 h / concentration at 2 h / Kp at 2 h: male, Sprague-Dawley, rat; for concentration at 8 h / concentration at 0.25 h / concentration at 2 h: read-out: Mean plasma/tissue concentration; for Kp at 8 h / Kp at 0.25 h / Kp at 2 h: read-out: Ratio (tissue to plasma)
# Method: Male Sprague-Dawley Rats (total of 6 animals) 6 to 8 weeks of age (210-227 g) was used in this biodistribution study. Compound 1 was dosed at 75 mg/kg to all animals through oral route of administration at a 10 ml/kg dose volume. Compound 1 formulation was freshly prepared in Tween-80+0.5% methyl cellulose and maintained at room temperature until dosing. Dose was administered in all animals under fasted conditions. […] Heart, lung, liver, kidney, stomach, small intestine, large intestine, skeletal muscle, brain, spleen, pancreas and adipose were harvested while blood was processed to plasma for bioanalytical quantification of Compound 1.
# Compound 1 bioanalytical assay was developed and validated using the SCIEX 6500 LC-MS/MS. A mobile phase (isocratic flow) comprised of Acetonitrile and 0.2% formic acid in MilliQ water in a Atlantis dC18-HPLC column (50×4.6 mm, […]), with a flow rate of 0.9 mL/min and a run time of 2.20 min. Mass transition (m/z) of 375.040 and 188.100 was used for detection of Compound 1 at an LLOQ of 2.14 ng/mL.
structure (smiles),measurement,setting,value
"COc1ccccc1-c1nc(CNC(=O)c2ccccc2OC(F)F)n[nH]1 [Compound 1, 2-(difluoromethoxy)-N-[[5-(2-methoxyphenyl)-1H-1,2,4-triazol-3-yl]methyl]benzamide]",Mitotic spindle formation,HCT116 cells; FIG. 4A,lack of proper mitotic spindle formation
same,Mad1 signal intensity,HCT116 cells; FIG. 4B,increase in Mad1 signal intensity
same,Tissue distribution,[1],Drug distribution was revealed across all tissues
same,Blood brain barrier penetration,[1]; 8 hours,brain barrier penetration observed
same,Percentage (plasma to tissue),"[1]; Adipose tissue, 0.25 hours",1.94%
same,Percentage (plasma to tissue),"[1]; Adipose tissue, 2 hours",2.36%
same,Percentage (plasma to tissue),"[1]; Adipose tissue, 8 hours",3.06%
same,Percentage (plasma to tissue),"[1]; Brain, 0.25 hours",0.79%
same,Percentage (plasma to tissue),"[1]; Brain, 2 hours",0.57%
same,Percentage (plasma to tissue),"[1]; Brain, 8 hours",2.18%
same,Percentage (plasma to tissue),"[1]; Heart, 0.25 hours",1.89%
same,Percentage (plasma to tissue),"[1]; Heart, 2 hours",2.59%
same,Percentage (plasma to tissue),"[1]; Heart, 8 hours",4.19%
same,Percentage (plasma to tissue),"[1]; Kidney, 0.25 hours",2.99%
same,Percentage (plasma to tissue),"[1]; Kidney, 2 hours",2.92%
same,Percentage (plasma to tissue),"[1]; Kidney, 8 hours",4.16%
same,Percentage (plasma to tissue),"[1]; Liver, 0.25 hours",12.5%
same,Percentage (plasma to tissue),"[1]; Liver, 2 hours",10.6%
same,Percentage (plasma to tissue),"[1]; Liver, 8 hours",16.5%
same,Percentage (plasma to tissue),"[1]; Lungs, 0.25 hours",3.91%
same,Percentage (plasma to tissue),"[1]; Lungs, 2 hours",2.93%
same,Percentage (plasma to tissue),"[1]; Lungs, 8 hours",5.06%
same,Percentage (plasma to tissue),"[1]; Pancreas, 0.25 hours",3.42%
same,Percentage (plasma to tissue),"[1]; Pancreas, 2 hours",3.18%
same,Percentage (plasma to tissue),"[1]; Pancreas, 8 hours",7.60%
same,Percentage (plasma to tissue),"[1]; Plasma, 0.25 hours",3.59%
same,Percentage (plasma to tissue),"[1]; Plasma, 2 hours",2.29%
same,Percentage (plasma to tissue),"[1]; Plasma, 8 hours",5.37%
same,Percentage (plasma to tissue),"[1]; Skeletal Muscle, 0.25 hours",0.77%
same,Percentage (plasma to tissue),"[1]; Skeletal Muscle, 2 hours",0.85%
same,Percentage (plasma to tissue),"[1]; Skeletal Muscle, 8 hours",20.5%
same,Percentage (plasma to tissue),"[1]; Small intestine, 0.25 hours",21.9%
same,Percentage (plasma to tissue),"[1]; Small intestine, 2 hours",21.9%
same,Percentage (plasma to tissue),"[1]; Small intestine, 8 hours",4.82%
same,Percentage (plasma to tissue),"[1]; Spleen, 0.25 hours",4.26%
same,Percentage (plasma to tissue),"[1]; Spleen, 2 hours",1.68%
same,Percentage (plasma to tissue),"[1]; Spleen, 8 hours",7.84%
same,Percentage (plasma to tissue),"[1]; Stomach, 0.25 hours",42.7%
same,Percentage (plasma to tissue),"[1]; Stomach, 2 hours",48.1%
same,Percentage (plasma to tissue),"[1]; Stomach, 8 hours",18.8%
same,concentration at 8 h,"[1]; lung, Lungs, 8 hours",78.2 ng/g
same,Kp at 8 h,"[1]; lung, Lungs, 8 hours",0.94
same,concentration at 0.25 h,"[1]; Adipose tissue, 0.25 hours",1530 ng/g
same,Kp at 0.25 h,"[1]; Adipose tissue, 0.25 hours",0.54
same,concentration at 2 h,"[1]; Adipose tissue, 2 hours",2030 ng/g
same,Kp at 2 h,"[1]; Adipose tissue, 2 hours",1.03
same,concentration at 8 h,"[1]; Adipose tissue, 8 hours",47.2 ng/g
same,Kp at 8 h,"[1]; Adipose tissue, 8 hours",0.57
same,concentration at 0.25 h,"[1]; Brain, 0.25 hours",624 ng/g
same,Kp at 0.25 h,"[1]; Brain, 0.25 hours",0.22
same,concentration at 2 h,"[1]; Brain, 2 hours",494 ng/g
same,Kp at 2 h,"[1]; Brain, 2 hours",0.25
same,concentration at 8 h,"[1]; Brain, 8 hours",33.6 ng/g
same,Kp at 8 h,"[1]; Brain, 8 hours",0.4
same,concentration at 0.25 h,"[1]; Heart, 0.25 hours",1490 ng/g
same,Kp at 0.25 h,"[1]; Heart, 0.25 hours",0.53
same,concentration at 2 h,"[1]; Heart, 2 hours",2230 ng/g
same,Kp at 2 h,"[1]; Heart, 2 hours",1.13
same,concentration at 8 h,"[1]; Heart, 8 hours",64.8 ng/g
same,Kp at 8 h,"[1]; Heart, 8 hours",0.78
same,concentration at 0.25 h,"[1]; Kidney, 0.25 hours",2360 ng/g
same,Kp at 0.25 h,"[1]; Kidney, 0.25 hours",0.83
same,concentration at 2 h,"[1]; Kidney, 2 hours",2520 ng/g
same,Kp at 2 h,"[1]; Kidney, 2 hours",1.27
same,concentration at 8 h,"[1]; Kidney, 8 hours",64.2 ng/g
same,Kp at 8 h,"[1]; Kidney, 8 hours",0.77
same,concentration at 0.25 h,"[1]; Liver, 0.25 hours",9890 ng/g
same,Kp at 0.25 h,"[1]; Liver, 0.25 hours",3.49
same,concentration at 2 h,"[1]; Liver, 2 hours",9140 ng/g
same,Kp at 2 h,"[1]; Liver, 2 hours",4.63
same,concentration at 8 h,"[1]; Liver, 8 hours",255 ng/g
same,Kp at 8 h,"[1]; Liver, 8 hours",3.06
same,concentration at 0.25 h,"[1]; Lungs, 0.25 hours",3090 ng/g
same,Kp at 0.25 h,"[1]; Lungs, 0.25 hours",1.09
same,concentration at 2 h,"[1]; Lungs, 2 hours",2520 ng/g
same,Kp at 2 h,"[1]; Lungs, 2 hours",1.28
same,concentration at 0.25 h,"[1]; Pancreas, 0.25 hours",2700 ng/g
same,Kp at 0.25 h,"[1]; Pancreas, 0.25 hours",0.95
same,concentration at 2 h,"[1]; Pancreas, 2 hours",2740 ng/g
same,Kp at 2 h,"[1]; Pancreas, 2 hours",1.39
same,concentration at 8 h,"[1]; Pancreas, 8 hours",117 ng/g
same,Kp at 8 h,"[1]; Pancreas, 8 hours",1.41
same,concentration at 0.25 h,"[1]; Plasma, 0.25 hours",2830 ng/mL
same,concentration at 2 h,"[1]; Plasma, 2 hours",1980 ng/mL
same,concentration at 8 h,"[1]; Plasma, 8 hours",83.1 ng/mL
same,concentration at 0.25 h,"[1]; Skeletal Muscle, 0.25 hours",607 ng/g
same,Kp at 0.25 h,"[1]; Skeletal Muscle, 0.25 hours",0.21
same,concentration at 2 h,"[1]; Skeletal Muscle, 2 hours",734 ng/g
same,Kp at 2 h,"[1]; Skeletal Muscle, 2 hours",0.37
same,concentration at 8 h,"[1]; Skeletal Muscle, 8 hours",316 ng/g
same,Kp at 8 h,"[1]; Skeletal Muscle, 8 hours",3.81
same,concentration at 0.25 h,"[1]; Small intestine, 0.25 hours",16700 ng/g
same,Kp at 0.25 h,"[1]; Small intestine, 0.25 hours",5.9
same,concentration at 2 h,"[1]; Small intestine, 2 hours",18800 ng/g
same,Kp at 2 h,"[1]; Small intestine, 2 hours",9.53
same,concentration at 8 h,"[1]; Small intestine, 8 hours",74.4 ng/g
same,Kp at 8 h,"[1]; Small intestine, 8 hours",0.9
same,concentration at 0.25 h,"[1]; Spleen, 0.25 hours",3360 ng/g
same,Kp at 0.25 h,"[1]; Spleen, 0.25 hours",1.19
same,concentration at 2 h,"[1]; Spleen, 2 hours",1450 ng/g
same,Kp at 2 h,"[1]; Spleen, 2 hours",0.73
same,concentration at 8 h,"[1]; Spleen, 8 hours",121 ng/g
same,Kp at 8 h,"[1]; Spleen, 8 hours",1.46
same,concentration at 0.25 h,"[1]; Stomach, 0.25 hours",33700 ng/g
same,Kp at 0.25 h,"[1]; Stomach, 0.25 hours",11.9
same,concentration at 2 h,"[1]; Stomach, 2 hours",41500 ng/g
same,Kp at 2 h,"[1]; Stomach, 2 hours",21
same,concentration at 8 h,"[1]; Stomach, 8 hours",290 ng/g
same,Kp at 8 h,"[1]; Stomach, 8 hours",3.5
